Experimental data taken from US10538554B2, “Peptides and uses therefor as antiviral agents” (priority 2015, dated 2020).
Bridge positions count the residues as written; N and C are the ends. Square brackets hold non-standard residues; d marks the D form. Peptide text beside a SMILES is read from it.

Test system: H1N1 A/PR/8-MC/1934
Set-up: species or system BALB/c female mice
Settings: mouse, in vivo

CC[C@@H](C)[C@H]1NC(=O)[C@@H](Cc2ccccc2)NC(=O)[C@@H]([C@H](C)O)NC(=O)[C@@H](Cc2ccccc2)NC(=O)[C@@H](Cc2c[nH]c3ccccc23)NC(=O)[C@@H]([C@H](C)O)NC(=O)[C@H](NC(=O)[C@H](CCCCN)NC(=O)[C@H](CCCCN)NC(=O)[C@H](CCCNC(=N)N)NC(=O)[C@@H](N)CCCNC(=N)N)CSSC[C@H](C(=O)O)NC(=O)[C@@H](CC(N)=O)NC1=O [PSP IV A17, H-RRKKctwftfinc-OH] (H-RRKK[dC][dT][dW][dF][dT][dF][dI][dN][dC]-OH; disulfide 5-13)
morbidity of influenza infected mice: completely inhibited the morbidity
